Read-outs that look alike come from different tables or passages of the source.
Tests used:
[1] = orally dosed; mice; known value; cited from earlier work
[2] = in vivo
[3] = Atovaquone release by Rapid Equilibrium Dialysis (RED) in Simulated Interstitial Fluid; type: physicochemical; settings: initial 6-hour period, SIF, 1 mg/mL atovaquone, 37° C.
Experimental: The release rate of atovaquone from solid compositions thereof in accordance with the invention, alongside an equivalent unformulated preparation of atovaquone, was assessed using Rapid Equilibrium Dialysis (RED) (ThermoFisher Scientific). The eleven ‘hit’ formulations were dispersed in Simulated Interstitial Fluid (SIF) and subsequently diluted to 1 mg/mL of atovaquone. The SIF consisted of 35 mg/mL bovine serum albumin (BSA) and 2 mg/mL γ-Globulin derived from bovine blood and dissolved in distilled water. Unformulated atovaquone was initially dissolved in DMSO prior to dilution with SIF, such that the DMSO volume was <1% of the total volume. […] Following incubation, 4 mL ultima gold liquid scintillation cocktail fluid (Meridian Biotechnologies, UK) was added to each 0.1 mL sample and radioactivity was determined as disintegrations per minute (DPM) using a Perkin Elmer 3100TS scintillation counter. Data is expressed as the amount of atovaquone released and diffused across the membrane as a percentage of the starting donor amount, in triplicate, for each of the eleven hit formulations as compared to unformulated atovaquone, as shown in FIGS. 3A-3K (error bars are ±1 S.D.) and FIG. 4 (release after 24 hours) (error bars are ±1 S.D.). […]

[4] = background statement; cited from earlier work
[5] = set-up: species or system mice; settings: mouse, in vivo
Experimental: Mice were injected intramuscularly with 200 mg/kg of an atovaquone nanoformulation. At intervals blood was harvested (microtainer tubes, BD Biosciences), centrifuged (1300×g, 10 min, 4° C.), and plasma was collected and stored at −80° C. until use. The nanoformulations tested were ACS_ATQ_7 and ACS_ATQ_8.
The concentration of atovaquone in the plasma was assayed by UPLC-MS/MS. Briefly, acetonitrile and deuterated atovaquone internal standard were added to 25 μL of thawed plasma, followed by filtration (Captiva filtration plate, Agilent Technologies). A 5 μL aliquot was separated on a reverse phase column and atovaquone was monitored by triple-quadrupole API4000 (SCIEX, Framingham, Mass., USA) mass analyzer with electrospray ionization. The assay was validated to FDA guidelines for 250-50,000 ng/mL. Values between 250 and 77 ng/mL (the limit of detection) were interpreted conservatively.

[6] = humans; known value; cited from earlier work

disposition of atovaquone in humans relative to mice [2]: approximately eight | Release Rate ([3]; Table 3): 0.006 h⁻¹ | Release Rate ([3]; different loadings, Table 7): 0.0060 h⁻¹ | plasma concentration of atovaquone that correlates with successful prophylaxis [5]: > 200 ng/mL
SMILES: O=C1C(O)=C([C@H]2CC[C@H](c3ccc(Cl)cc3)CC2)C(=O)c2ccccc21 [atovaquone]
plasma half-life [1]: 9 h | lipophilicity [4]: highly lipophilic | solubility in water [4]: practically insoluble | plasma half-life [6]: 70 h

— patent US20230218547A1, “CHEMICAL COMPOSITION” (The University of Liverpool, priority 2016, published 2023)
